Results from patent EP4606801A1, “FUSED HETEROCYCLIC COMPOUND AND USE THEREOF” (Chengdu Zenitar Biomedical Technology Co., Ltd., priority 2022, dated 2024).
Values joined by “and” are separate entries in the source; they are usually repeats but may differ in a detail not shown here. Identical values can stand only once. Like-named read-outs stand apart in the source and are kept apart here.

Key:
[1] = Pharmacokinetic evaluation of compound in Balb/c mice; assay type: in vivo; settings: 1 mg/kg, PO; for AUC(0-t) / Cmax / half-life: male, mouse, plasma
Protocol: Sample preparation: About 0.2 mg of the compound was dissolved in 10 µL DMSO, then a sodium chloride injection was added to make a 0.1 mg·mL^-1 solution of the compound for administration.
Three mice were administered the compound intravenously (IV) at a dose of 1 mg·kg^-1, and the other three were administered the compound orally (PO) at the same dose. […] The plasma concentration of the drug was quantitatively analyzed with the LC-MS/MS method, and pharmacokinetic parameters were calculated, including the […] (Cmax), area under the concentration-time curve (AUC(0-t)), half-life (T1/2), clearance (CL), volume of distribution at steady state (Vdss), and bioavailability (F).

[2] = system: BRCA wild-type DLD-1 cells; experiment: Anti-proliferative activity assay of cell (CCK8), DLD-1; assay type: cell-based; settings: Homo sapiens; BRCA wild-type DLD-1 cells, 72 h + 96 h, CCK8; read-out: DLD-1 IC50
PARP5A = biological target: T1, PARP5A (Homo sapiens, UniProt O95271); experiment: Determination of PARP5A enzyme (histone-coated plate, Biotin-NAD+); assay type: biochemical
T1 construct: purchased BPS 80504
Protocol: • 1.3.1 Preparation of buffer solution solution: PBST: 1x PBS, 0.05% Tween-20; blocking solution: 1x PBS, 0.05% Tween-20, 5% BSA; reaction buffer solution: 50 mM HEPES (pH 7.5), 0.002% Tween-20, 0.1% BSA, 100 mM NaCl, 2mM DTT. • 1.3.2 Coating: A 100 ng/mL Histone coating solution was prepared by using 1x PBS, 25 uL of the coating solution was transferred to a 384-well reaction plate, and the reaction plate was coated overnight at 4°C. • 1.3.3 Washing: After the coating was completed, the coating solution was discarded, and the reaction plate was washed with the PBST solution by means of transferring 50uL of the PBST solution to the 384-well reaction plate, letting it stand for 5 min, discarding the washing solution, refilling the reaction plate with the PBST solution, and repeating the washing process 3 times. Finally, the reaction plate was tapped dry and the next step of blocking was proceeded with. • 1.3.4 Blocking: 50 uL of the blocking solution was transferred to the 384-well reaction plate and set for 1 h. • 1.3.5 Washing: After the blocking was completed, the blocking solution was discarded, the reaction plate was washed 3 times with the PBST solution according to the method in Step 2, and the reaction plate was tapped dry. • 1.3.6 A 25/10× PARP5A solution was prepared, then 10 µL of the PARP5A solution was transferred to the 384-well reaction plate. For negative control wells, 10 µL of the reaction buffer solution instead was transferred, resulting in the final concentration of PARP5A of 10 nM. • 1.3.7 A 2,000x compound was prepared, 50 nL of the compound was transferred to with echo, 19.95 uL of the reaction buffer solution was added into the compound, mix well, and 5 uL of the mixed compound was transferred to the 384-well reaction plate. • 1.3.8 A 25/10x Biotin-NAD+ solution was prepared, 10uL of the Biotin-NAD+ solution was transferred to the 384-well reaction plate, resulting in a final Biotin-NAD+ concentration of 2uM, and incubated at room temperature for 60 min. • 1.3.9 Washing: After the reaction was completed, the reaction liquid was discarded. The reaction plate was washed 3 times with the PBST solution according to the method in Step 2, and the reaction plate was tapped dry. • 1.3.10 A Stre-HRP solution was prepared by means of diluting it with the blocking solution, 25uL of the Stre-HRP solution was transferred to the reaction plate, and incubated at room temperature for 1 h, resulting the final concentration of Stre-HRP of 0.1 µg/mL. • 1.3.11 Washing: The Stre-HRP solution was discarded, the reaction plate was washed 3 times with the PBST solution according to the method in Step 2, and the reaction plate was tapped dry. • 1.3.12 Color developing: Femto-ECL Substrate A, Femto-ECL Substrate B, and QuantaRed ADHP were mixed in a 50:50:1 ratio.

PARP2 = biological target: T2, PARP2 (Homo sapiens, UniProt Q9UGN5); experiment: Determination of PARP2 enzyme (histone-coated plate, Biotin-NAD+); assay type: biochemical; settings: read-out: PARP-2 IC50
T2 construct: purchased BPS 80502
Protocol: • 1.2.1 Preparation of buffer solution: PBST: 1x PBS, 0.05% Tween-20; blocking solution: 1x PBS, 0.05% Tween-20, 5% BSA; reaction buffer solution: 50 mM HEPES (pH 7.5), 0.002% Tween-20, 0.1% BSA, 100 mM NaCl, 2mM DTT. • 1.2.2 Coating: A 100 ng/mL Histone coating solution was prepared by using 1x PBS, 25 uL of the coating solution was transferred to a 384-well reaction plate, and the reaction plate was coated overnight at 4°C. • 1.2.3 Washing: After the coating was completed, the coating solution was discarded, and the reaction plate was washed with the PBST solution by means of transferring 50uL of the PBST solution to the 384-well reaction plate, letting it stand for 5 min, discarding the washing solution, refilling the reaction plate, and repeating the washing process 3 times. Finally, the reaction plate was tapped dry and the next step of blocking was proceeded with. • 1.2.4 Blocking: 50 uL of the blocking solution was transferred to the 384-well reaction plate and set for 1 h. • 1.2.5 Washing: After the blocking was completed, the blocking solution was discarded, the reaction plate was washed 3 times with the PBST solution according to the method in Step 2, and the reaction plate was tapped dry. • 1.2.6 A 25/10× PARP2 solution was prepared, then 10 µL of the PARP2 solution was transferred to the 384-well reaction plate.

PARP1 = PARP1 (Homo sapiens, UniProt P09874); experiment: Determination of PARP1 enzyme (histone-coated plate, chemiluminescence); assay type: biochemical
breast cancer MDA-MB-436 = experiment: In-vivo pharmacodynamic study on subcutaneous xenograft tumor model of breast cancer MDA-MB-436; design: species or system NOD/SCID mice; settings: 100 mg/kg orally once daily
Protocol: Strain: NOD/SCID; Grade: SPF; Source: Beijing Vitron River Bio-technology Co., Ltd.
The cells were washed 3 times with pre-cooled PBS, centrifuged at 300 g for 10 min, collected, re-suspended in PBS, and counted with a blood cell counting chamber, and the cell concentration was adjusted. After cell collection, the cell suspension was pre-cooled on ice. 100 µL of the cell suspension was administered via subcutaneous injection into the dorsal flank of the mice, and the grouped treatment was started when the tumor volume reached 200-300 mm^3.
General observation: Observation of animals: all live experimental animals to be observed; Observation time: twice a day; Observation items: including but not limited to general performance, behavioral status, eyes, mouth, nose and mouth, ears, hair, stool, urine, genitalia and other toxic symptoms; If abnormalities are observed, provide a detailed description.
Animal assay: all viable experimental animals scheduled for assay; Assay time: All animals were weighed before the modeling for test grouping. After modeling, the mice were weighed once every 2 days, and the weight change of the mice was recorded in real time. Effective criteria: tumor volume (TV), relative tumor volume (RTV) and relative tumor growth rate of subcutaneously implanted tumor model. […] The calculation formula of tumor volume (TV) was: TV (mm^3) = a×b2×0.5, where a and b were the long diameter and short diameter, respectively.
The evaluation index for anti-tumor activity was the relative tumor growth rate T/C (%), and the calculation formula was as follows: T/C(%) = TRTV/CRTV × 100%; [formula]
Where, TRTV is relative tumor volume of the treatment group; CRTV is relative tumor volume of the negative control group. Therapeutic evaluation criteria: T/C (%)> 60 is considered ineffective; T/C (%) ≤ 60, and P < 0.05 (through statistical analysis) is considered effective. Measurement of tumor weight and tumor inhibition rate (%): At the end of the treatment period, the animals were euthanize, tumor masses dissected and isolated, tumors weighed, and photographs took. The tumor inhibition rate (%) was calculated by the formula below: [formula]
All raw data within the facility were collected manually according to the experimental scheme and the relevant guidelines of the research institution, or gathered by using a data acquisition system. Manually collected data can be transcribed into software such as Excel for analysis and reporting. The data from each group were quantitative, and the experimental data for each group of animals in the tables were expressed as mean ± standard deviation (Mean ± SD). In the figures, the experimental data ware described as mean ± standard error of the mean (Mean ± SEM). Statistical analysis, including t-tests and survival analysis, was performed by using the software such as EXCEL and GraphPad Prism.
After 24 days of administration, the tumor-bearing mice were anesthetized and euthanized. The tumor tissues were dissected, weighed, and photographed, and the tumor inhibition rate was calculated.

T2 sequence (Q9UGN5 whole entry): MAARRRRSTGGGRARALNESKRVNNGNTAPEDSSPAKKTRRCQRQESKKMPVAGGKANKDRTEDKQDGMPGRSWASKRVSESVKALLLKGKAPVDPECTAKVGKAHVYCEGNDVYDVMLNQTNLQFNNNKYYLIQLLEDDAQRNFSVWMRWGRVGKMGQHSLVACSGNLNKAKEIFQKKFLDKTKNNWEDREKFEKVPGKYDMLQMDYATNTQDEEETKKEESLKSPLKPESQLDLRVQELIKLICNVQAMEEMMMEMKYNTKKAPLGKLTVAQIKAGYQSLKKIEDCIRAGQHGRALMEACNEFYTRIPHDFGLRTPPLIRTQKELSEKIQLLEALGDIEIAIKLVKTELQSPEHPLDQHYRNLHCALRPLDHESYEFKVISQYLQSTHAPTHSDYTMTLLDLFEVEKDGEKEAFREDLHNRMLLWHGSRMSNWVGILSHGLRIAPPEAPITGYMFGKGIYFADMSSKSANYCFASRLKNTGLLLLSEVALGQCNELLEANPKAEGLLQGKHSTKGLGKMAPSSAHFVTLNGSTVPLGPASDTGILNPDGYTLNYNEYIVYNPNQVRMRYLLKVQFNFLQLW
T1 sequence (O95271 1001-1327): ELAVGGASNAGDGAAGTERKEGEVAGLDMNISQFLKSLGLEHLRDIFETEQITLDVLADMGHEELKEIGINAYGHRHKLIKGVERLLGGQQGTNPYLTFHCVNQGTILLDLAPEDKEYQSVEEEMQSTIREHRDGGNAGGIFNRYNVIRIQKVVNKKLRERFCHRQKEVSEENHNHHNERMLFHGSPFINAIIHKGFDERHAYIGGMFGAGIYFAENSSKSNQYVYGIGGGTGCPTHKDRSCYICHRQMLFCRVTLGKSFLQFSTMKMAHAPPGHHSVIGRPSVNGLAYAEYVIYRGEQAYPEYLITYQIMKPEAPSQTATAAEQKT
PARP1, sequence (P09874 whole entry): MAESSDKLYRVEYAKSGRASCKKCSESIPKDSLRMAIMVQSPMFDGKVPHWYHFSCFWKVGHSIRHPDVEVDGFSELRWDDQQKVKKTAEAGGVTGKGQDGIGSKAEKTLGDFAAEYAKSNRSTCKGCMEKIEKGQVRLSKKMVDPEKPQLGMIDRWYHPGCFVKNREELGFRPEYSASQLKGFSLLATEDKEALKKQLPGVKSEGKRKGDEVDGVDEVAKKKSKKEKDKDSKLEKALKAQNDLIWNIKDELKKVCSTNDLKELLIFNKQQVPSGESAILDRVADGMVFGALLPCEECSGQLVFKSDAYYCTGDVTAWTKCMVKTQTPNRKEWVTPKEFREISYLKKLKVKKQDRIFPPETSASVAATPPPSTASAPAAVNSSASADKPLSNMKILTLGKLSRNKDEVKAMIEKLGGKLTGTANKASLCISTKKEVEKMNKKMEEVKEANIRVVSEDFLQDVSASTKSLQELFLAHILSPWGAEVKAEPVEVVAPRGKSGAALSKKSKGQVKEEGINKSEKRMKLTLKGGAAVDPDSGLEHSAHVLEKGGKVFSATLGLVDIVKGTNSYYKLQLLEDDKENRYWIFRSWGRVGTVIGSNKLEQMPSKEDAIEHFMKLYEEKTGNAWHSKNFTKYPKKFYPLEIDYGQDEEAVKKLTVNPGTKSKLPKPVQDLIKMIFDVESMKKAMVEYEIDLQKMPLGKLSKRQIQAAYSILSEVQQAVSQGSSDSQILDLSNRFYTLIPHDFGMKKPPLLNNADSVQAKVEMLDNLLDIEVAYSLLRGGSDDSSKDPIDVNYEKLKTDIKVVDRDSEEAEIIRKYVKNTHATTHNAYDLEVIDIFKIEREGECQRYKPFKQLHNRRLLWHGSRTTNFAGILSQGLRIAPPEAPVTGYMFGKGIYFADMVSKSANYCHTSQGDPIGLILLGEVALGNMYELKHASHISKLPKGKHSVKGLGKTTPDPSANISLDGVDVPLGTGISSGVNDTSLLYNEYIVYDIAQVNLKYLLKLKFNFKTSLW

Structure (SMILES)	Vdss [1]	AUC(0-t) [1]	Cmax [1]	half-life [1]	IC50 [2]	IC50 (PARP5A; read-out: PARP-5a IC50)	IC50 (PARP2)	further results
[2H]C([2H])([2H])NC(=O)c1ccc(C2=CCN(Cc3ccc4nc(CC)c(=O)[nH]c4c3F)CC2)cn1 [Compound 4, 1'-((2-Ethyl-5-fluoro-3-oxo-3,4-dihydroquinoxalin-6-yl)methyl)-N-(methyl-d3)-1',2',3',6'-tetra hydro-[3,4'-bipyridine]-6-carboxamide]	0.14 L/kg	122000 ng·h/mL	7370 ng/mL	11.5 h	> 10 µM	–	–	CL [1]: 0.17 mL/min/kg
[2H]C([2H])([2H])NC(=O)c1ccc(C2=CCN(Cc3cnc4cc(CC)c(=O)[nH]c4c3)CC2)c(C)n1 [Compound 8, 1'-((7-ethyl-6-oxo-5,6-dihydro-1,5-naphthyridin-3-yl)methyl)-2-methyl-N-(methyl-d3)-1',2',3', 6'-tetrahydro-[3,4'-bipyridine]-6-carboxamide]	0.14 L/kg	42300 ng·h/mL	5010 ng/mL	4.1 h	–	–	–	–
[2H]C([2H])([2H])NC(=O)c1ccc(C2=CCN(Cc3cnc4cc(CC)c(=O)[nH]c4c3)CC2)c(F)n1 [Compound 10, 1'-((7-ethyl-6-oxo-5,6-dihydro-1,5-naphthyridin-3-yl)methyl)-2-fluoro-N-(methyl-d3)-1',2',3', 6'-tetrahydro-[3,4'-bipyridine]-6-carboxamide]	0.15 L/kg	44600 ng·h/mL	3840 ng/mL	4.64 h	> 10 µM	–	–	–
[2H]C([2H])([2H])NC(=O)c1ccc(C2=CCN(Cc3cnc4cc(C([2H])([2H])C([2H])([2H])[2H])c(=O)[nH]c4c3)CC2)cn1 [Compound 11, 1'-((7-(ethyl-d5)-6-oxo-5,6-dihydro-1,5-naphthyridin-3-yl)methyl)-N (methyl-d3)-1',2',3',6'-tet rahydro-[3,4'-bipyridine]-6-carboxamide]	–	–	–	–	–	> 1 µM	> 1 µM	–
[2H]C([2H])([2H])C([2H])([2H])c1cc2ncc(CN3CC=C(c4ccc(C(=O)NC5CC5)nc4)CC3)cc2[nH]c1=O [Compound 12, N-cyclopropyl-1'-((7-(ethyl-d5)-6-oxo-5,6-dihydro-1,5-naphthyridin-3-yl)methyl)-1',2',3',6'-tet rahydro-[3,4'-bipyridine]-6-carboxamide]	0.70 L/kg	6950 ng·h/mL	2290 ng/mL	3.87 h	> 10 µM	> 1 µM	> 1 µM	CL [1]: 2.5 mL/min/kg; PARP-1 inhibition ratio (PARP1): 99.8% and 99.9%
[2H]C([2H])([2H])C([2H])([2H])c1nc2ccc(CN3CC=C(c4ccc(C(=O)NC)nc4)CC3)c(F)c2[nH]c1=O [Compound 13, 1'-((2-(ethyl-d5)-5-fluoro-3-oxo-3,4-dihydroquinoxalin-6-yl)methyl)-N-methyl-1',2',3',6'-tetra hydro-[3,4'-bipyridine]-6-carboxamide]	–	–	–	–	> 10 µM	–	> 1 µM	PARP-1 inhibition ratio (PARP1): 96.1% and 98.5%; IC50 (PARP5A): > 1 µM
[2H]C([2H])([2H])C([2H])([2H])c1nc2ccc(CN3CC=C(c4ccc(C(=O)NC)nc4F)CC3)c(F)c2[nH]c1=O [Compound 14, 1'-((2-(ethyl-d5)-5-fluoro-3-oxo-3,4-dihydroquinoxalin-6-yl)methyl)-2-fluoro-N-methyl-1',2',3 '6'-tetrahydro-[3,4'-bipyridine]-6-carboxamide]	–	–	–	–	> 10 µM	> 1 µM	> 1 µM	PARP-1 inhibition ratio (PARP1; 10 nM): 98.9%; PARP-1 inhibition ratio (PARP1; 100 nM): 99.1%
[2H]C([2H])([2H])Cc1cc2ncc(CN3CC=C(c4ccc(C(=O)NC)nc4)CC3)cc2[nH]c1=O [Compound 16, 1'-((7-(ethyl-2,2,2-d3)-6-oxo-5,6-dihydro-1,5-naphthyridin-3-yl)methyl)-N-methyl-1',2',3',6'-t etrahydro-[3,4'-bipyridine]-6-carboxamide]	–	–	–	–	–	> 1 µM	> 1 µM	–
O=C(c1cc(Cc2n[nH]c(=O)c3ccccc23)ccc1F)N1CCN(C(=O)C2CC2)CC1 [Olaparib, reference compound]	–	–	–	–	–	–	–	RTV (breast cancer MDA-MB-436; 24 days): 2.2; Tumor inhibition rate (%) (breast cancer MDA-MB-436; 24 days): 62.19%; Tumor volume T/C% (breast cancer MDA-MB-436; 24 days): 33.4%; Tumor weight (g) X±SD (breast cancer MDA-MB-436; 24 days): 0.82 ± 0.39 g; Body weight (g) X±SD End (breast cancer MDA-MB-436; End, 24 days): 21.7 ± 1.4 g; Tumor volume (mm^3) X±SD End (breast cancer MDA-MB-436; End, 24 days): 551.5±343.1 mm^3; Body weight (g) X±SD Start (breast cancer MDA-MB-436; Start): 21.9 ± 1.1 g; Tumor volume (mm^3) X±SD Start (breast cancer MDA-MB-436; Start): 250.7±70.0 mm^3
